Assays:
MAP kinase p38 = MAP kinase p38 (Homo sapiens, UniProt O15264+Q15759+Q16539+P53778); test: In vitro inhibitory concentration against radioligand [3H]SB-202190 binding to CSBP kinase in human monocytic cell line, THP-1
[1] = biological target: T1, Polyunsaturated fatty acid 5-lipoxygenase (Rattus norvegicus, UniProt P12527); test: Inhibitory concentration against 5-lipoxygenase in rat RBL-1 cells; assay type: cell-based
T1 sequence (P12527 whole entry): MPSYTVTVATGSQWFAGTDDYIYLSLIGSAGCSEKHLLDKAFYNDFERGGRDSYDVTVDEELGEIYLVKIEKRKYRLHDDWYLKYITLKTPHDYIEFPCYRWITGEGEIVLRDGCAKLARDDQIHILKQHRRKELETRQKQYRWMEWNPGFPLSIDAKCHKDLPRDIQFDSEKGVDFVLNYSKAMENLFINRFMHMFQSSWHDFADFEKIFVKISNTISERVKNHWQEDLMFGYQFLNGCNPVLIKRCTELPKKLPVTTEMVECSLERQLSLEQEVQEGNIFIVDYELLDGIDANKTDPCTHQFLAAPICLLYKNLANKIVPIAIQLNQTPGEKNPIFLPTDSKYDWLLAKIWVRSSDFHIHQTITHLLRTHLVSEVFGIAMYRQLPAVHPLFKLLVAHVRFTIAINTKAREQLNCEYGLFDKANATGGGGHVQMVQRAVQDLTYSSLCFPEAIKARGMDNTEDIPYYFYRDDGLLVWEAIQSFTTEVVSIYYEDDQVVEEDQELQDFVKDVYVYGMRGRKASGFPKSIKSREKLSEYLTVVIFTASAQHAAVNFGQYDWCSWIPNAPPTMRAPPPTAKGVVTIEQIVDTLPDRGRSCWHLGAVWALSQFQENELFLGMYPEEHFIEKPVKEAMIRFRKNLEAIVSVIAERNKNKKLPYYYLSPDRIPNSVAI

Mus musculus = test: In vivo inhibition of LPS-induced TNF production in mice 50 mg/Kg.; assay type: functional
[2] = biological target: T2, Prostaglandin G/H synthase 1 (Ovis aries, UniProt P05979); test: Inhibitory concentration against Prostaglandin H2 synthase 1 (PGHS-1) from ram seminal vesicle
T2 sequence (P05979 whole entry): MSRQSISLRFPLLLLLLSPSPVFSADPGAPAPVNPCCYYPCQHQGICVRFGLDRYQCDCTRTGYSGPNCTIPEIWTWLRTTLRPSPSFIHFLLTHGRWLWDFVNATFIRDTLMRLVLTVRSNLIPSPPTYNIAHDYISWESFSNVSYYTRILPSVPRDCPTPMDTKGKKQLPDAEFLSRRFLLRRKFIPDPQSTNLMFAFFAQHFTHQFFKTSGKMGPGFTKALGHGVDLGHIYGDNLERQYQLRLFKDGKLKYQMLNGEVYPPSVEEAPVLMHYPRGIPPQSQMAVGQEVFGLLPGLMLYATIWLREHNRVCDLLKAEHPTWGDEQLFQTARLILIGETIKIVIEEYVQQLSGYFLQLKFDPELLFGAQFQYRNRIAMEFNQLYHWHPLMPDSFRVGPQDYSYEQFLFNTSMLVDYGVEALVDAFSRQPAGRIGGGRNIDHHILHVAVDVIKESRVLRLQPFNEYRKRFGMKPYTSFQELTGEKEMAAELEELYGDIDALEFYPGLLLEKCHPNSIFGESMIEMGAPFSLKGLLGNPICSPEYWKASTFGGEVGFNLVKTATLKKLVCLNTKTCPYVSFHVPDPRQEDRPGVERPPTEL

| Compound | IC50 (MAP kinase p38) | IC50 [1] | Change (Mus musculus) | IC50 [2] |
| --- | --- | --- | --- | --- |
| Cc1cc(-c2c(-c3ccc(F)cc3)ncn2CCCN2CCOCC2)cc(C)n1 | 25000 nM |  |  |  |
| Fc1ccc(-c2ncn(CCCN3CCOCC3)c2-c2ccnc(Cl)c2)cc1 | 1890 nM |  |  |  |
| Fc1ccc(-c2ncn(C3CC3)c2-c2ccncc2)cc1 | 80 nM | 60000 nM | -79% | 16000 nM |
| O=S(=O)(CCCn1cnc(-c2ccc(F)cc2)c1-c1ccncc1)c1ccccc1 | 1810 nM |  | -42% |  |
| CN(CCCn1cnc(-c2ccc(F)cc2)c1-c1ccncc1)Cc1ccccc1 | 130 nM |  | -28% |  |
| Fc1ccc(-c2ncn(CCCN3CCOCC3)c2-c2ccccn2)cc1 | 6460 nM |  |  |  |
| FC(F)(F)c1cccc(-c2ncn(CCCN3CCOCC3)c2-c2ccncc2)c1 | 460 nM |  |  |  |
| CSc1cccc(-c2ncn(CCCN3CCOCC3)c2-c2ccncc2)c1 | 290 nM |  | -10% |  |
| C[S+]([O-])CCCn1cnc(-c2ccc(F)cc2)c1-c1ccncc1 (stereo not drawn) | 1400 nM |  | -43% |  |
| C[S+]([O-])c1cccc(-n2cnc(-c3ccc(F)cc3)c2-c2ccncc2)c1 (stereo not drawn) | 520 nM |  | -20% |  |
| Fc1ccc(-c2ncn(CCCN3CCOCC3)c2-c2ccnc3ccccc23)cc1 | 9000 nM |  | -19% |  |
| CCOCCCn1cnc(-c2ccc(F)cc2)c1-c1ccncc1 | 100 nM |  | -29% |  |
| Clc1ccc(-c2ncn(CCCN3CCOCC3)c2-c2ccncc2)cc1Cl | 320 nM | > 100000 nM | -73% | > 100000 nM |
| CC(C)n1cnc(-c2ccc(F)cc2)c1-c1ccncc1 | 120 nM |  | -56% |  |
| CSc1ccc(-n2cnc(-c3ccc(F)cc3)c2-c2ccncc2)cc1 | 1470 nM |  | -20% |  |
| CSc1ccc(-c2nc(-c3cccc(F)c3)c(-c3ccncc3)[nH]2)cc1 | 340 nM |  |  |  |
| Fc1ccc(-c2ncn(CCCSc3ccccc3)c2-c2ccncc2)cc1 | 80 nM |  | -42% |  |
| CSCCCn1cnc(-c2ccc(F)cc2)c1-c1ccncc1 | 190 nM |  | -49% |  |
| C[S+]([O-])c1ccccc1-n1cnc(-c2ccc(F)cc2)c1-c1ccncc1 (stereo not drawn) | 710 nM |  | 40% |  |
| Fc1ccc(-c2ncn(CCCN3CCOCC3)c2-c2cccnc2)cc1 | 64700 nM |  |  |  |
| O=C(O)CCCn1cnc(-c2ccc(F)cc2)c1-c1ccncc1 | 3830 nM |  | -47% |  |
| Fc1ccc(-c2ncn(CCCN3CCCCC3)c2-c2ccncc2)cc1 | 1170 nM |  | -26% |  |
| Fc1ccc(-c2ncn(CCCNCc3ccccc3)c2-c2ccncc2)cc1 | 70 nM |  | -43% |  |
| CSc1ccc(-c2nc3n(c2-c2ccncc2)CCC3)cc1 |  | 3000 nM |  | 100000 nM |

| Compound | IC50 (MAP kinase p38) | IC50 [1] | Change (Mus musculus) | IC50 [2] |
| --- | --- | --- | --- | --- |
| Nc1cc(-c2c(-c3ccc(F)cc3)ncn2CCCN2CCOCC2)ccn1 | 1180 nM |  | -38% |  |
| Fc1ccc(-c2nc3n(c2-c2ccncc2)CCS3)cc1 |  | 10000 nM |  | 5400 nM |
| Cc1cc(-c2c(-c3ccc(F)cc3)ncn2CCCN2CCOCC2)ccn1 | 3050 nM |  | -37% |  |
| FC(F)(F)c1cc(-c2ncn(CCCN3CCOCC3)c2-c2ccncc2)cc(C(F)(F)F)c1 | 114000 nM |  |  |  |
| Clc1cccc(-c2ncn(CCCN3CCOCC3)c2-c2ccncc2)c1 | 210 nM |  | -49% |  |
| Fc1ccc(-c2ncn(CCCN3CCCC3)c2-c2ccncc2)cc1 | 340 nM |  | -17% |  |
| Fc1ccc(-c2ncn(CCN3CCOCC3)c2-c2ccncc2)cc1 | 760 nM |  | -25% |  |
| CSc1cccc(-n2cnc(-c3ccc(F)cc3)c2-c2ccncc2)c1 | 120 nM |  | -23% |  |
| CSc1ccccc1-n1cnc(-c2ccc(F)cc2)c1-c1ccncc1 | 80 nM |  | 29% |  |
| [O-][S+](CCCn1cnc(-c2ccc(F)cc2)c1-c1ccncc1)c1ccccc1 (stereo not drawn) | 630 nM |  |  |  |
| Fc1ccc(-c2ncn(CCCOc3ccccc3)c2-c2ccncc2)cc1 | 70 nM |  | -14% |  |
| Fc1ccc(-c2ncn(CCCCN3CCOCC3)c2-c2ccncc2)cc1 | 480 nM |  | -40% |  |
| CCN(CC)CCCn1cnc(-c2ccc(F)cc2)c1-c1ccncc1 | 270 nM |  | -21% |  |
| Cc1cc(-c2[nH]c(-c3ccc([S+](C)[O-])cc3)nc2-c2cccc(F)c2)ccn1 (stereo not drawn) | 370 nM |  | -64% |  |
| COC(=O)CCCn1cnc(-c2ccc(F)cc2)c1-c1ccncc1 | 290 nM |  | -33% |  |
| FC(F)(F)c1ccc(-c2ncn(CCCN3CCOCC3)c2-c2ccncc2)cc1 | 2980 nM |  |  |  |
| CC(C)(C)n1cnc(-c2ccc(F)cc2)c1-c1ccncc1 | 4740 nM |  | -35% |  |
| C[S+]([O-])c1ccc(-n2cnc(-c3ccc(F)cc3)c2-c2ccncc2)cc1 (stereo not drawn) | 750 nM |  |  |  |
| C[S+]([O-])c1cccc(-c2ncn(CCCN3CCOCC3)c2-c2ccncc2)c1 (stereo not drawn) | 4950 nM |  |  |  |
| CS(=O)(=O)CCCn1cnc(-c2ccc(F)cc2)c1-c1ccncc1 | 510 nM |  |  |  |
| NCCCn1cnc(-c2ccc(F)cc2)c1-c1ccncc1 | 150 nM |  |  |  |
| Fc1ccc(-c2nc[nH]c2-c2ccncc2)cc1 | 210 nM | > 100000 nM | -82% | > 100000 nM |
| C[S+]([O-])c1ccc(-c2nc(-c3ccc(F)cc3)c(-c3ccncc3)[nH]2)cc1 (stereo not drawn) [SB-203580] |  |  | -83% |  |
| Fc1ccc(-c2ncn(CCCN3CCOCC3)c2-c2ccncc2)cc1 [SB-210313] |  | > 100000 nM | -55% |  |

From ChEMBL document CHEMBL1129676, “1-substituted 4-aryl-5-pyridinylimidazoles: a new class of cytokine suppressive drugs with low 5-lipoxygenase and cyclooxygenase inhibitory potency” (J Med Chem, 1996)
